From article PMC12543283, “TastepepAI: An artificial intelligence platform for taste peptide de novo design” (PLOS Computational Biology, 2025)
“And” between values parts separate entries of the source, which are not always exact repeats. Identical values can stand only once. Ends that are not written are not given here.

Tests used:
[1] = tested on: human umbilical vein endothelial cells (HUVEC)
Description: The cytotoxicity of 73 synthetic peptides was evaluated using four human cell lines: human pancreatic ductal epithelial cells (HPNE), human embryonic kidney cells (HEK293T), human umbilical vein endothelial cells (HUVEC), and human bronchial epithelial cells (BEAS-2B). When cell density reached 70% confluence, the complete culture medium was replaced with serum-free maintenance medium, and peptides were added at a final concentration of 100 μM for 36 h. Control groups received only serum-free maintenance medium without peptides. Cell proliferation was assessed using the CCK-8 assay kit (Solarbio, CA1210) according to the manufacturer’s instructions.

[2] = tested on: human pancreatic ductal epithelial cells (HPNE)
[3] = tested on: human embryonic kidney cells (HEK293T)
[4] = tested on: human bronchial epithelial cells (BEAS-2B)
[5] = Electronic tongue analysis (Taste-Sensing System SA 402B); parameters: unit not given here; settings: reference solution 30 mM KCl + 0.3 mM tartaric acid as baseline, first measurement excluded; for Umami: sensor AAE; for Umami / Bitter / Sweet: detection threshold 0, room temperature; for Umami / Bitter / Sour / Salty: four replicates; for Sour: detection threshold -13, room temperature; for Salty: detection threshold -6, room temperature; for Sweet: measured five times
Description: Taste characteristics were analyzed using the electronic tongue system E-tongue (Taste-Sensing System SA 402B, Intelligent Sensor Technology Co. Ltd., Japan). The system was equipped with five specific sensor probes for detecting sourness (CA0), saltiness (CT0), bitterness (C00), sweetness (GL1), and umami (AAE). Samples were tested at concentrations of 0.1 mg/mL and 1.0 mg/mL. Prior to experiments, sensors were activated by immersion in a reference solution (30 mM KCl and 0.3 mM tartaric acid) for 24 h. A 30 min self-diagnostic procedure was performed before each measurement to ensure data accuracy. The reference solution served both as a cleaning solution and standard solution for taste signal calibration. According to the manufacturer’s instructions, using the reference solution as baseline, the detection thresholds were set at −13 for sourness, −6 for saltiness, and 0 for other taste modalities. Two cleaning solutions were employed for electrode maintenance: (1) 30% ethanol solution containing 100 mM HCl for negative charge reference electrodes, and (2) 30% ethanol solution containing 100 mM KCl and 10 mM KOH for positive charge reference electrodes. All taste measurements were performed at room temperature with four replicates, except for sweetness which was measured five times. The first measurement data were excluded from analysis.

Row | Substance | Average cell viability, HUVEC [1] | Cell viability, HUVEC, Data1 [1] | Cell viability, HUVEC, Data2 [1] | Cell viability, HUVEC, Data3 [1] | Average cell viability, HPNE [2] | Cell viability, HPNE, Data1 [2] | Cell viability, HPNE, Data2 [2] | Cell viability, HPNE, Data3 [2] | Average cell viability, HEK293T [3] | Cell viability, HEK293T, Data1 [3] | Cell viability, HEK293T, Data2 [3] | Cell viability, HEK293T, Data3 [3] | Average cell viability, BEAS-2B [4] | Cell viability, BEAS-2B, Data1 [4] | Cell viability, BEAS-2B, Data2 [4] | Cell viability, BEAS-2B, Data3 [4] | Umami ([5]; peptide 0.1 mg/mL) | Umami ([5]; peptide 1 mg/mL) | Bitter ([5]; sensor C00, peptide 0.1 mg/mL) | Bitter ([5]; sensor C00, peptide 1 mg/mL) | other results
1 | KADGNR [TaPep4] | 105.16 | 113.12 | 102.98 | 99.39 | 97.84 | 95.76 | 97.39 | 100.36 | 102.74 | 102.11 | 102.49 | 103.63 | 96.81 | 99.00 | 95.11 | 96.31 | 1.35 | -5.17 | 7.74 | 1.90 | Sour ([5]; sensor CA0, peptide 0.1 mg/mL): -2.92; Sour ([5]; sensor CA0, peptide 1 mg/mL): 13.79; Salty ([5]; sensor CT0, peptide 0.1 mg/mL): -16.43; Salty ([5]; sensor CT0, peptide 1 mg/mL): 17.52; Sweet ([5]; sensor GL1, peptide 0.1 mg/mL): 4.21; Sweet ([5]; sensor GL1, peptide 1 mg/mL): -5.50
2 | TQEVVN [TaPep25] | 92.52 | 90.21 | 89.33 | 98.03 | 92.98 | 92.95 | 81.96 | 104.03 | 100.16 | 103.15 | 98.42 | 98.90 | 110.07 | 118.34 | 103.39 | 108.47 | 1.53 | -3.13 | 7.01 | 3.50 | Sour ([5]; sensor CA0, peptide 0.1 mg/mL): -6.12; Sour ([5]; sensor CA0, peptide 1 mg/mL): 7.84; Salty ([5]; sensor CT0, peptide 0.1 mg/mL): -23.02; Salty ([5]; sensor CT0, peptide 1 mg/mL): 5.51; Sweet ([5]; sensor GL1, peptide 0.1 mg/mL): 8.12; Sweet ([5]; sensor GL1, peptide 1 mg/mL): -3.53
3 | EQPLQA [TaPep21] | 102.16 | 96.59 | 98.43 | 111.44 | 98.70 | 92.25 | 87.35 | 116.51 | 97.76 | 94.35 | 95.58 | 103.34 | 98.84 | 92.62 | 108.57 | 95.31 | 0.99 | -5.14 | 7.83 | 3.66 | Sour ([5]; sensor CA0, peptide 0.1 mg/mL): -1.59; Sour ([5]; sensor CA0, peptide 1 mg/mL): 12.04; Salty ([5]; sensor CT0, peptide 0.1 mg/mL): -19.46; Salty ([5]; sensor CT0, peptide 1 mg/mL): 7.62; Sweet ([5]; sensor GL1, peptide 0.1 mg/mL): 5.53; Sweet ([5]; sensor GL1, peptide 1 mg/mL): -10.15
4 | KGYEAV [TaPep5] | 105.38 | 115.43 | 105.06 | 95.64 | 113.38 | 117.83 | 109.17 | 113.13 | 97.32 | 101.17 | 95.30 | 95.49 | 113.59 | 105.38 | 117.75 | 117.65 | 1.93 | -5.17 | 7.90 | bitterness suppression and -0.10 | Sour ([5]; sensor CA0, peptide 0.1 mg/mL): -4.04; Sour ([5]; sensor CA0, peptide 1 mg/mL): 12.61; Salty ([5]; sensor CT0, peptide 0.1 mg/mL): -18.14; Salty ([5]; sensor CT0, peptide 1 mg/mL): 14.26; Sweet ([5]; sensor GL1, peptide 0.1 mg/mL): 6.12; Sweet ([5]; sensor GL1, peptide 1 mg/mL): -5.63
